Holding throughout (format): biochemical
Assay [1] relates to protease of Beauveria sp MTCC 5184. As to the kind of experiment: Effect of metal ions on protease activity. The following applies: for Residual Activity (%): 28° C., 30 min; for inhibition: 1 mM. On the procedure:
The protease activity has been expressed in terms of tyrosine equivalents. The reaction mixture contained an aliquot of suitably diluted enzyme solution and 10 mg Hammerstein casein in 0.1 M sodium carbonate buffer pH 9.0 in a total volume of 2 ml. After incubation at 50° C. for 10 min, the reaction was terminated by the addition of 3 ml of 5% trichloroacetic acid (acidified with concentrated hydrochloric acid). The precipitate formed was filtered through Whatman No. 1 filter paper after standing for 30 min at room temperature. The absorbance of trichloroacetic acid soluble fraction was measured at 280 nm. Micrograms of tyrosine produced was calculated from a pre-calibrated graph of absorbance at 280 nm against tyrosine concentration and the units are expressed as […] of tyrosine released per minute under assay conditions.
This example illustrates the effect of metal ions on protease activity of Beauveria sp MTCC 5184.

For assay [2] the test system is unchanged. As to the kind of experiment: Modification of serine residue of protease by PMSF. The following applies: 28° C., 30 min. On the procedure:
This example illustrates the modification of serine residue of protease by PMSF and its effect on protease activity. […] Protease incubated without PMSF served as the control.

Assay [3] shares this test system. As to the kind of experiment: Substrate protection by casein against inhibition by PMSF, NBS and WRK. An excerpt: The example illustrates the study of substrate protection by casein on inhibition of Beauveria sp MTCC 5184 protease by PMSF, WRK and NBS. […] Increase in casein concentration decreased the inhibition by both the inhibitors indicating substrate protection by casein (Table 11). This indicates the presence of serine, aspartic acid and tryptophan at the active site of protease.

Assay [4] concerns purified protease of Beauveria sp MTCC 5184. As to the kind of experiment: Stability of purified protease in organic solvents at 50° C. The following applies: 25% (v/v) solvent. An excerpt:
Following organic solvents were used: acetone, 1-butanol, benzene, chloroform, dimethylsulphoxide, ethanol, hexane, isopropanol and methanol. […] Samples were removed at different time intervals and residual activity was estimated.

The subject of assay [5] is protease of Beauveria sp MTCC 5184. As to the kind of experiment: Modification of tryptophan of protease with NBS. As to conditions: 28° C., 30 min. How it is done:
This example illustrates the modification of tryptophan with N-bromosuccinimide (NBS) and its effect on protease activity. […] Protease incubated without NBS served as the control.

For assay [6] the test system is unchanged. As to the kind of experiment: Modification of aspartic acid residue of protease by WRK. As to conditions: 28° C., 30 min. On the procedure:
This example illustrates the modification of aspartic acid residue of protease by Woodward's reagent (WRK) and its effect on protease activity. […] Protease incubated without WRK served as the control.

Turning to `[Cl-].[Na+]` [Na^+1], the “Residual Activity (%)” value in assay [1] (1 mM chloride salt) is 100.94%; in assay [1] (10 mM chloride salt), 99.01%.

`O=S(=O)(F)Cc1ccccc1` [PMSF, phenylmethylsulfonyl fluoride]: in assay [2] (10 μM purified protease), the “concentration at which complete inhibition was observed” value was determined as 0.025 mM. The “Residual Activity (%)” value in assay [2] (PMSF 0.005 mM) came to 45.65%; in assay [2] (PMSF 0.010 mM), 8.78%; in assay [2] (PMSF 0.015 mM), 3.76%; in assay [2] (PMSF 0.020 mM) it was 1.74%; in assay [2] (PMSF 0.025 mM), 0%; in assay [2] (PMSF 0.030 mM) it was 0%. For the same molecule, the “Residual Activity (%)” value in assay [2] (PMSF 0.035 mM), in assay [2] (PMSF 0.040 mM), in assay [2] (PMSF 0.045 mM) and in assay [2] (PMSF 0.050 mM) was 0% each time. Besides, the “Inhibition (%)” value in assay [3] (0.01 mM PMSF, casein 0 mg) is 95.02%; in assay [3] (0.01 mM PMSF, casein 1 mg), 74.91%; in assay [3] (0.01 mM PMSF, casein 2 mg) it was 70.78%; in assay [3] (0.01 mM PMSF, casein 3 mg) it was 64.06%; in assay [3] (0.01 mM PMSF, casein 4 mg) it was 60.71%; in assay [3] (0.01 mM PMSF, casein 5 mg) it was 52.65%. Moreover, the “Inhibition (%)” value in assay [3] (0.01 mM PMSF, casein 6 mg) worked out at 45.22%; in assay [3] (0.01 mM PMSF, casein 7 mg), 41.73%; in assay [3] (0.01 mM PMSF, casein 8 mg), 34.80%; in assay [3] (0.01 mM PMSF, casein 9 mg), 31.56%; in assay [3] (0.01 mM PMSF, casein 10 mg), 26.26%.

With `CCO` [Ethanol, ethanol], the “Residual Activity (%)” value in assay [4] (0 h, pH 7) turned out to be 100.00%; in assay [4] (1 h, pH 7), 98.50%; in assay [4] (2 h, pH 7), 45.21%.

For `[Cl][Mn][Cl]` [Mn^+2], the “Residual Activity (%)” value was 101.51% in assay [1] (1 mM chloride salt) and 73.98% in assay [1] (10 mM chloride salt).

As for `c1ccccc1` [Benzene, benzene], the “Residual Activity (%)” value is listed as 100.00% in assay [4] (0 h, pH 7); 61.85% in assay [4] (1 h, pH 7); 40.66% in assay [4] (2 h, pH 7).

As for `[Cl-].[K+]` [K^+1], the entries for the “Residual Activity (%)” value in assay [1] (1 mM chloride salt) and in assay [1] (10 mM chloride salt) were 91.71% and 87.63%, respectively.

As to `[Cl-].[Cl-].[Co+2]` [Co^+2], the “inhibitory effect on the protease” value in assay [1] (1 mM and 10 mM) was “no inhibitory effect”. Also, the “Residual Activity (%)” value came out at 103.86% in assay [1] (1 mM chloride salt) and 112.36% in assay [1] (10 mM chloride salt).

As for `CC(C)=O` [Acetone, acetone], the “Residual Activity (%)” value in assay [4] (0 h, pH 7) was 100.00%; in assay [4] (1 h, pH 7) it was 99.07%; in assay [4] (2 h, pH 7) it was 70.45%; in assay [4] (2 h, pH 7, listed as acetone), “around 70%”.

As for `O=C1CCC(=O)N1Br` [NBS, N-bromosuccinimide], in assay [5] (10 μM purified protease), the “concentration at which complete inhibition was observed” value was determined as 0.06 mM. Moreover, the “Residual Activity (%)” value came out at 20.39% in assay [5] (NBS 0.01 mM); 15.70% in assay [5] (NBS 0.02 mM); 12.55% in assay [5] (NBS 0.03 mM); 8.93% in assay [5] (NBS 0.04 mM); 7.08% in assay [5] (NBS 0.05 mM); 0% in assay [5] (NBS 0.06 mM). Besides, the “Residual Activity (%)” value in assay [5] (NBS 0.07 mM), in assay [5] (NBS 0.08 mM), in assay [5] (NBS 0.09 mM) and in assay [5] (NBS 0.10 mM) was 0% in each case. Further, the “Inhibition (%)” value in assay [3] (0.01 mM NBS, casein 0 mg) was determined as 87.06%; in assay [3] (0.01 mM NBS, casein 1 mg), 84.85%; in assay [3] (0.01 mM NBS, casein 2 mg), 69.95%; in assay [3] (0.01 mM NBS, casein 3 mg), 64.09%; in assay [3] (0.01 mM NBS, casein 4 mg) it was 48.93%; in assay [3] (0.01 mM NBS, casein 5 mg) it was 43.25%. In addition, the “Inhibition (%)” value in assay [3] (0.01 mM NBS, casein 6 mg) stood at 38.03%; in assay [3] (0.01 mM NBS, casein 7 mg), 34.06%; in assay [3] (0.01 mM NBS, casein 8 mg), 24.25%; in assay [3] (0.01 mM NBS, casein 9 mg) it was 16.27%; in assay [3] (0.01 mM NBS, casein 10 mg), 16.28%.

In the case of `[Ca+2].[Cl-].[Cl-]` [Ca^+2], in assay [1] (1 mM and 10 mM), the “activation of protease activity” value is reported as “no activation”. In addition, the “Residual Activity (%)” value was 92.99% in assay [1] (1 mM chloride salt) and 81.75% in assay [1] (10 mM chloride salt).

In turn, `[Hg+2]` [Hg^+2] returned an inhibition in assay [1] of 10%. For the same molecule, the “Residual Activity (%)” value in assay [1] (1 mM chloride salt) was 90.38%; in assay [1] (10 mM chloride salt), 63.16%.

On to 1-butanol, for which the “Residual Activity (%)” value stood at 100.00% in assay [4] (0 h, pH 7); 82.07% in assay [4] (1 h, pH 7); 46.38% in assay [4] (2 h, pH 7).

For the molecule `CC(C)O` [Isopropanol, isopropanol], the “Residual Activity (%)” value in assay [4] (0 h, pH 7) was determined as 100.00%; in assay [4] (1 h, pH 7), 71.26%; in assay [4] (2 h, pH 7) it was 46.16%.

For the molecule `CC[n+]1ccc(-c2cccc(S(=O)(=O)[O-])c2)o1` [WRK, Woodward's reagent], the “concentration at which complete inhibition was observed” value in assay [6] (10 μM purified protease) is 9 mM. Moreover, the “Residual Activity (%)” value was 86.08% in assay [6] (WRK 1 mM); 75.76% in assay [6] (WRK 2 mM); 61.47% in assay [6] (WRK 3 mM); 49.05% in assay [6] (WRK 4 mM); 34.66% in assay [6] (WRK 5 mM); 19.53% in assay [6] (WRK 6 mM). For the same molecule, the “Residual Activity (%)” value in assay [6] (WRK 7 mM) came out at 11.69%; in assay [6] (WRK 8 mM) it was 6.39%; in assay [6] (WRK 9 mM), 0%; in assay [6] (WRK 10 mM), 0%. The “Inhibition (%)” value was found to be 75.26% in assay [3] (5 mM WRK, casein 0 mg); 66.03% in assay [3] (5 mM WRK, casein 1 mg); 59.32% in assay [3] (5 mM WRK, casein 2 mg); 53.22% in assay [3] (5 mM WRK, casein 3 mg); 45.06% in assay [3] (5 mM WRK, casein 4 mg); 40.25% in assay [3] (5 mM WRK, casein 5 mg). Also, the “Inhibition (%)” value in assay [3] (5 mM WRK, casein 6 mg) came out at 31.10%; in assay [3] (5 mM WRK, casein 7 mg) it was 26.27%; in assay [3] (5 mM WRK, casein 8 mg), 19.32%; in assay [3] (5 mM WRK, casein 9 mg), 12.87%; in assay [3] (5 mM WRK, casein 10 mg) it was 8.72%.

Consider `ClC(Cl)Cl` [Chloroform, chloroform], for which the “Residual Activity (%)” value in assay [4] (0 h, pH 7) was determined as 100.00%; in assay [4] (1 h, pH 7) it was 77.14%; in assay [4] (2 h, pH 7), 38.55%.

As for `[Cl][Fe]([Cl])[Cl]` [Fe^+3], the figures for the “Residual Activity (%)” value in assay [1] (1 mM chloride salt) and in assay [1] (10 mM chloride salt) were 81.67% and 82.66%, respectively.

Take `[Cl][Cu][Cl]` [Cu^+2]: in assay [1] (1 mM and 10 mM), the “inhibitory effect on the protease” value is given as “no inhibitory effect”. Also, the “Residual Activity (%)” value in assay [1] (1 mM chloride salt) worked out at 109.42%; in assay [1] (10 mM chloride salt), 100.02%.

`[Cd+2]` [Cd^+2] had an inhibition in assay [1] of 3%. Further, the “Residual Activity (%)” value in assay [1] (1 mM chloride salt) is given as 96.99%; in assay [1] (10 mM chloride salt), 63.50%.

In the case of `CCCCCC` [Hexane, hexane], the “Residual Activity (%)” value in assay [4] (0 h, pH 7) came to 100.00%; in assay [4] (1 h, pH 7) it was 76.18%; in assay [4] (2 h, pH 7), 29.43%.

The values above are taken from patent US8765447B2, “Fungal strain Beauveria sp. MTCC 5184 and a process for the preparation of enzymes therefrom” (Council of Scientific and Industrial Research, priority 2010, dated 2014).
